Source: US20260200890A1, “ADAR1 INHIBITORS AND METHODS OF USING THE SAME” (AVAMMUNE THERAPEUTICS INC., priority 2022, published 2026)

How the values were obtained:
ADAR1 = biological target: T1, ADAR1 (Homo sapiens, UniProt P55265); assay: ADAR1 Inhibition Assay (IFN fold-induction, Quanti-Luc luminescence, p110 KO A549 dual cells); format: cell-based; details: IFN fold-induction vs DMSO, 24 and 48 h
T1 construct: endogenous in cells; host or cells: p110 KO A549 dual cells
T1 sequence (P55265 1-1226): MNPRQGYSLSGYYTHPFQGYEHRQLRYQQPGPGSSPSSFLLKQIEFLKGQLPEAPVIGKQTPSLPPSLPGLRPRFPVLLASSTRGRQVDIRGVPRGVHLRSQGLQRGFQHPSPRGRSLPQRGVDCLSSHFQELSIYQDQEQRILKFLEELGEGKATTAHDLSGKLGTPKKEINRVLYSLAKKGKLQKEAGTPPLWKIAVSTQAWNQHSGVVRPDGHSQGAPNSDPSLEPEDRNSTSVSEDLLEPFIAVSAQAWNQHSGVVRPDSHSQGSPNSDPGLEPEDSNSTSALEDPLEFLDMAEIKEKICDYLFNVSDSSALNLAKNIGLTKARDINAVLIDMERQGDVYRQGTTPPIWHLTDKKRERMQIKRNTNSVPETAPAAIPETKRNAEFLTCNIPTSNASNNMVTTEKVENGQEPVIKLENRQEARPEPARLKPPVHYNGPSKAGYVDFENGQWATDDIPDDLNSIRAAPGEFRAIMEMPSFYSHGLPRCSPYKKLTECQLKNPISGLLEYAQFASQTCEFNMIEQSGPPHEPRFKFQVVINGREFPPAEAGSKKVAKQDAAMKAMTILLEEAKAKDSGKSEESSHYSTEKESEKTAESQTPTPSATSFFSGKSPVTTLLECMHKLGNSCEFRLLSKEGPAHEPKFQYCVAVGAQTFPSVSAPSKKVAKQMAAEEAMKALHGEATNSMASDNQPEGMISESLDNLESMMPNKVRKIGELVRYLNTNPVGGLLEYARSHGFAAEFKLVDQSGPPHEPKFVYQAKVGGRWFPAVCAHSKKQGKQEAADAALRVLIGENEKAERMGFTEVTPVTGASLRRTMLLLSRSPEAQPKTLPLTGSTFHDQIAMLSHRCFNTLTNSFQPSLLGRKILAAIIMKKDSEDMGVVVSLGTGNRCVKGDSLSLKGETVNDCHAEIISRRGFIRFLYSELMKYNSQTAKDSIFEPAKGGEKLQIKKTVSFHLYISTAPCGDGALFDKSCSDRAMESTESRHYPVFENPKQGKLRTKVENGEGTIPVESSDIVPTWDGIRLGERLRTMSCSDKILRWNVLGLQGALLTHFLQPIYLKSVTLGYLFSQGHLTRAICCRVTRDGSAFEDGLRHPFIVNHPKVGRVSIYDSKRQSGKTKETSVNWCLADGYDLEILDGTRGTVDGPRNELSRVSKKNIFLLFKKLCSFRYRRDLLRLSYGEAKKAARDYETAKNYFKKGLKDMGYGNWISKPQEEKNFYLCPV
In short: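 p110 KO A549 dual cells (20,000/well) in supplemented DMEM, treated next day with compound at 1% final DMSO for 24 and 48 h at 37 °C, 5% CO2. Supernatant luminescence read with Quanti-Luc; IFN fold-induction = sample RLU/mean DMSO RLU, used for EC50.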

Zα domain of ADAR1 p150 = biological target: T2, Zα domain of ADAR1 p150 (Homo sapiens, UniProt P55265); assay: SPR binding assay; details: 6× his tag Zα domain immobilized on CM5 chip, analyte 0-25 μM
T2 construct: 10 μg/ml of Zα domain of ADAR1 was immobilized on CM5 chip using anti-HIS antibody; made in house
T2 sequence (P55265 133-199 limits assumed): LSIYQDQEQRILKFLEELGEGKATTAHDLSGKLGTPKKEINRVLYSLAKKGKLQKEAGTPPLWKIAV
Procedure: 6× his tag Za domain of ADAR1 p150 was purified using bacterial purification system. Protein was isolated from supernatant of cell lysate using Ni-NTA resin. For binding assay using SPR, 10 μg/ml of Zα domain of ADAR1 was immobilized on CM5 chip using anti-HIS antibody. Binding was quantified using the following condition below: • Analyte: 25, 12.5, 6.25, 3.125, 1.56, 0.78, 0 μM • Contact time—60 seconds, • Dissociation time—320 seconds • Flow rate—30 μL/minute Running buffer-PBSP+5% DMSO • After curve fitting, Kd values for synthesized compounds was quantified using the instrument software.

A549 p110 KO cells = assay: IFN-β induction in A549 p110 KO cells; format: cell-based, human
WT A549 cells = assay: IFN-β induction in WT A549 cells; format: cell-based, human; details: compared to A549 p110 KO cells, FIG. 1B
A549 (p110 KO) = assay: Interferon-stimulated gene expression in A549 (p110 KO); format: cell-based, human; details: FIG. 2, FIGS. 3A-3D
HCT 116 = assay: Interferon-stimulated gene expression in HCT 116; format: cell-based, human; details: FIG. 4, FIGS. 5A-5D
B16F10 = assay: MDA5, IFN-β, CXCL10 levels in murine cancer cell line B16F10; format: cell-based; details: FIG. 6, FIGS. 7A-7B
B16F10 melanoma = assay: B16F10 mouse melanoma model, anti-tumor efficacy; format: in vivo
Description: (§1) Study: A B16F10 mouse melanoma model was used to evaluate the anti-tumor efficacy of Compound 1, alone or in combination with anti-PD-1 therapy.

B16F10 tumors = assay: Tumor MDA5, IFN-β and CXCL10 levels in mice with B16F10 tumors; format: in vivo, mouse
Description: as §1

CCOC(=O)c1cc(-c2ccccc2)sc1NC(=O)COC(=O)c1cccc(S(N)(=O)=O)c1 [Compound 1, Ethyl 5-phenyl-2-(2-((3-sulfamoylbenzoyl)oxy)acetamido)thiophene-3-carboxylate]
EC50 (ADAR1): ≤ 25 µM
Kd (Zα domain of ADAR1 p150): ≤ 1000 nM
IFN-β induction (via ADAR1 inhibition) (A549 p110 KO cells; FIG. 1A): dose-dependent IFN-β induction
IFN-β induction compared to STING agonists cGAMP, ADU-S100, MSA-002 (A549 p110 KO cells; FIG. 1C): superior IFN-β induction
IFN-β induction (WT A549 cells): Lower IFN-β induction
expression of several interferon-stimulated genes (ISGs) (A549 (p110 KO)): dose-dependent expression
expression of several interferon-stimulated genes (ISGs) (HCT 116): dose-dependent expression
upregulation of MDA5, IFN-β, and CXCL10 (B16F10): dose-dependent upregulation
tumor growth inhibition (TGI) (B16F10 melanoma; B16F10 mouse melanoma model, FIG. 8): 45%
tumor weight reduction (B16F10 melanoma; compared to vehicle control, Compound 1 100 μg, FIG. 9): about 60%
tumor MDA5 mRNA levels (B16F10 tumors; B16F10 melanoma model, FIG. 10): significant increase
induction of IFN-β and CXCL10 (B16F10 tumors; B16F10 tumors in mice, FIG. 11A, 11B): increased induction

CCOC(=O)c1cc(-c2ccccc2)sc1NC(=O)CNC(=O)Cc1ccc(S(N)(=O)=O)cc1 [Compound 363]
EC50 (ADAR1): > 100 µM
Kd (Zα domain of ADAR1 p150): ≤ 1000 nM

CCOC(=O)c1cc(-c2ccccc2)sc1NC(=O)C1CCCCN1C(=O)Cc1cccc(NS(C)(=O)=O)c1 (stereo not shown) [Compound 380]
EC50 (ADAR1): > 100 µM
Kd (Zα domain of ADAR1 p150): ≤ 1000 nM

CCOC(=O)c1cc(-c2ccccc2)[nH]c1NC(=O)COC(=O)c1cccc(P(=O)(O)O)c1 [Compound 355]
EC50 (ADAR1): > 100 µM
Kd (Zα domain of ADAR1 p150): ≤ 1000 nM

CCOC(=O)c1cc(-c2ccccc2)sc1NC(=O)CN(C)Cc1cccc(NS(C)(=O)=O)c1 [Compound 180]
EC50 (ADAR1): > 100 µM
Kd (Zα domain of ADAR1 p150): ≤ 1000 nM

CCOC(=O)c1nc(-c2ccccc2)oc1NC(=O)COC(=O)c1cccc(P(=O)(O)O)c1 [Compound 418]
EC50 (ADAR1): > 100 µM
Kd (Zα domain of ADAR1 p150): > 10000 nM

CCOC(=O)c1cc(-c2ccccc2)sc1NC(=O)c1ccc(-c2cccc(NS(C)(=O)=O)c2)nc1 [Compound 253]
EC50 (ADAR1): > 100 µM
Kd (Zα domain of ADAR1 p150): ≤ 1000 nM

CS(=O)(=O)Nc1cccc(C(=O)OCC(=O)Nc2sc(-c3ccccc3)cc2C#N)c1 [Compound 127]
EC50 (ADAR1): > 100 µM
Kd (Zα domain of ADAR1 p150): ≤ 1000 nM

CCOC(=O)c1cc(-c2ccccc2)sc1NC(=O)CNC(=O)c1cccc(Br)c1 [Compound 358]
EC50 (ADAR1): > 100 µM
Kd (Zα domain of ADAR1 p150): ≤ 1000 nM

CCOC(=O)c1cc(-c2ccccc2)sc1NC(=O)COC(=O)c1ccc2c(c1)OCCO2 [Compound 163]
EC50 (ADAR1): > 100 µM
Kd (Zα domain of ADAR1 p150): ≤ 1000 nM

CCOC(=O)c1cc(-c2ccccc2)[nH]c1NC(=O)CNC(=O)c1cccc(NS(C)(=O)=O)c1 [Compound 395]
EC50 (ADAR1): > 100 µM
Kd (Zα domain of ADAR1 p150): > 25000 nM

CCOC(=O)c1cc(-c2ccccc2)sc1NC(=O)COC(=O)C1CCCC(NS(C)(=O)=O)C1 (stereo not shown) [Compound 150]
EC50 (ADAR1): > 100 µM
Kd (Zα domain of ADAR1 p150): > 25000 nM

CCOC(=O)c1cc(-c2ccccc2)sc1NC(=O)COC(=O)c1cccc(NS(C)(=O)=O)c1 [Compound 66, Ethyl 2-(2-((3-(methylsulfonamido)benzoyl)oxy)acetamido)-5-phenylthiophene-3-carboxylate]
EC50 (ADAR1): ≤ 25 µM
Kd (Zα domain of ADAR1 p150): ≤ 1000 nM

CCOC(=O)c1cc(-c2ccccc2)sc1NC(=O)COc1cccc(NS(C)(=O)=O)c1 [Compound 147]
EC50 (ADAR1): > 100 µM
Kd (Zα domain of ADAR1 p150): ≤ 1000 nM

CCOC(=O)c1cc(-c2ccccc2)sc1NC(=O)[C@H]1CCN(C(=O)c2cccc(P(=O)(OCC)OCC)c2)C1 [Compound 406]
EC50 (ADAR1): 50 to 100 µM
Kd (Zα domain of ADAR1 p150): ≤ 1000 nM

CCOC(=O)c1cc(-c2ccccc2)sc1NC(=O)COC(=O)c1cccc(N(C)S(C)(=O)=O)c1 [Compound 130]
EC50 (ADAR1): > 100 µM
Kd (Zα domain of ADAR1 p150): ≤ 1000 nM

CCOC(=O)c1cc(-c2ccccc2)sc1NC(=O)COC(=O)c1cccc(P(=O)(OCC)OCC)c1 [Compound 343]
EC50 (ADAR1): > 100 µM
Kd (Zα domain of ADAR1 p150): ≤ 1000 nM

CCOC(=O)c1cc(-c2ccccc2)sc1NC(=O)COC(=O)c1cccc(S(=O)(=O)NC(C)=O)c1 [Compound 399]
EC50 (ADAR1): > 100 µM
Kd (Zα domain of ADAR1 p150): ≤ 1000 nM

CCOC(=O)c1cc(-c2ccccc2)sc1NC(=O)[C@H]1CCN(C(=O)c2cccc(S(=O)(=O)NC(C)=O)c2)C1 [Compound 428]
EC50 (ADAR1): > 100 µM
Kd (Zα domain of ADAR1 p150): ≤ 1000 nM

CCOC(=O)c1cc(-c2ccccc2)sc1NC(=O)[C@H]1CCCN1C(=O)c1cccc(P(=O)(O)O)c1 [Compound 414]
EC50 (ADAR1): > 100 µM
Kd (Zα domain of ADAR1 p150): ≤ 1000 nM

CCOC(=O)c1cc(-c2ccccc2)sc1NC(=O)COC(=O)c1cccc(NS(=O)(=O)C2CCCCC2)c1 [Compound 132]
EC50 (ADAR1): > 100 µM
Kd (Zα domain of ADAR1 p150): ≤ 1000 nM

CCOC(=O)c1cc(-c2ccccc2)sc1NC(=O)CNC(=O)Cc1ccc(Cl)c(NS(C)(=O)=O)c1 [Compound 366]
EC50 (ADAR1): > 100 µM
Kd (Zα domain of ADAR1 p150): ≤ 1000 nM

CCOC(=O)c1cc(-c2ccccc2)sc1NC(=O)COC(=O)C1CN(S(C)(=O)=O)CCO1 (stereo not shown) [Compound 172]
EC50 (ADAR1): > 100 µM
Kd (Zα domain of ADAR1 p150): ≤ 1000 nM

CS(=O)(=O)Nc1cccc(C(=O)OCc2nc(=O)c3cc(-c4ccccc4)sc3[nH]2)c1 [Compound 241]
EC50 (ADAR1): > 100 µM
Kd (Zα domain of ADAR1 p150): ≤ 1000 nM

CCOC(=O)c1cc(-c2ccccc2)sc1NC(=O)[C@H]1CCN(Cc2cccc(P(=O)(O)O)c2)C1 [Compound 397]
EC50 (ADAR1): > 100 µM
Kd (Zα domain of ADAR1 p150): ≤ 1000 nM

CCOC(=O)c1cc(-c2ccccc2)sc1NC(=O)Cn1cc(C(=O)Nc2cccc(P(=O)(O)O)c2)nn1 [Compound 420]
EC50 (ADAR1): > 100 µM
Kd (Zα domain of ADAR1 p150): ≤ 1000 nM

CCOC(=O)c1cc(-c2ccccc2)sc1NC(=O)CN1C[C@H]2CC[C@@H](C1)N2S(C)(=O)=O [Compound 364]
EC50 (ADAR1): > 100 µM
Kd (Zα domain of ADAR1 p150): > 25000 nM
